Assay results as given in US9840513B2 (AbbVie S.à.r.l., priority 2015, dated 2017).

Biological target: T1, F508delCFTR cell surface expression in CFBE41o-F508delCFTR-HRP cells (Homo sapiens, UniProt P13569, DEL508-508)
T1 construct: fused on or other part: Horseradish peroxidase (HRP) reporter inserted in the fourth exofacial (extracellular) loop of CFTR; expression is doxycycline-inducible
Assay: Cell Surface Expression-Horse Radish Peroxidase (CSE-HRP) Assay
Assay type: cell-based
Conditions: for EC50: CFBE41o-F508delCFTR-HRP cells, 18-24 hours at 33° C., 8-point curve, highest concentration 20 μM; for Maximum % activity (%): maximum at any tested concentration, normalized to on-plate positive control (3 μM)
Procedure, shortened: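 Correctors incubated 18-24 h at 33 °C on doxycycline-induced (0.5 μg/mL, 72 h) CFBE41o-F508delCFTR-HRP cells, 3-fold series from 20 μM. After DPBS washes, luminol luminescence read; activity expressed relative to DMSO and a 3 μM positive control, EC50 fitted from triplicate plates.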

T1 sequence (P13569 with tags, fused parts or gaps DEL508-508 limits assumed): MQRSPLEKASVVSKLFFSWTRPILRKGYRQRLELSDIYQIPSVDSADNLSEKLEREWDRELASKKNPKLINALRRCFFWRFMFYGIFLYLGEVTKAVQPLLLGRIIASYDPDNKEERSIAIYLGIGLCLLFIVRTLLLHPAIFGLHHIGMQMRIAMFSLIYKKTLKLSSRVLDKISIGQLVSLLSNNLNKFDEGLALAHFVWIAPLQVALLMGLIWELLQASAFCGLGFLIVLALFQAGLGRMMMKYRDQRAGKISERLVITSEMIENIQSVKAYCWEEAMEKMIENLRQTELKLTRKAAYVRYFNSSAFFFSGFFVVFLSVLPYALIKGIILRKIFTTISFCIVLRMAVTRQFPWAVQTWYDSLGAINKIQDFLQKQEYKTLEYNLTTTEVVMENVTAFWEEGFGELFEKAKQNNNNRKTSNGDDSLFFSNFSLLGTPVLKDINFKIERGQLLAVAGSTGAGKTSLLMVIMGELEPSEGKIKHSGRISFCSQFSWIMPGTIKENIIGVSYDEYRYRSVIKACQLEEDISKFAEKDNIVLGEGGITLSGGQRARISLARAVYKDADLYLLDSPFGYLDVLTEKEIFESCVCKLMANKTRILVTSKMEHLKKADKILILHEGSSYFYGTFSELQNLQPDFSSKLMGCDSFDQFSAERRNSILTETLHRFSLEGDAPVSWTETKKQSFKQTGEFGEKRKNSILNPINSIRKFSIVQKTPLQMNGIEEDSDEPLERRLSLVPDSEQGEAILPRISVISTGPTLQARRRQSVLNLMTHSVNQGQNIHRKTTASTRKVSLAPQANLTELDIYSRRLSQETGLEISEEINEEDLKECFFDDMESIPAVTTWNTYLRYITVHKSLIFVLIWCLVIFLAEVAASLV
T1 sequence (P13569 919-1480 limits assumed, stated change not applied): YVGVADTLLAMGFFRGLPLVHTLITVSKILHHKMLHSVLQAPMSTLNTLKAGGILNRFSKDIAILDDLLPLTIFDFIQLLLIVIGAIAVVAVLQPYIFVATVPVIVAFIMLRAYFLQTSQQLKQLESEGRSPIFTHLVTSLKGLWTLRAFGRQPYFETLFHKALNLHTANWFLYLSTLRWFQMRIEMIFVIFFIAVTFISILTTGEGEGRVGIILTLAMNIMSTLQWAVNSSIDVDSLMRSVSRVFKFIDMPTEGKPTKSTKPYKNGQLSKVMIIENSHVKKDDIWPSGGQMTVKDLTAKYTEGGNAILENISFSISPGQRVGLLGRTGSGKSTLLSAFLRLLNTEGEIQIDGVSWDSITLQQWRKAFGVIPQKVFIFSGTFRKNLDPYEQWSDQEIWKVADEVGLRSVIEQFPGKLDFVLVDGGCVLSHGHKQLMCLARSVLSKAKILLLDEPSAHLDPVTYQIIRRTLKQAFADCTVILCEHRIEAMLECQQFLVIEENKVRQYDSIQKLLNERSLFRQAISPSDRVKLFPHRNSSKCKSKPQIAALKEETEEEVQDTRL

For `COc1ccc2c(c1)O[C@@H](c1ccc(C(=O)NC(CO)c3ccccc3OC)cn1)C[C@H]2NC(=O)[C@@]1(C)COc2cc3c(cc21)OC(F)(F)O3` (stereo partly drawn) [Example 222, 6-[(2R,4R)-4-{[(7R)-2,2-difluoro-7-methyl-6,7-dihydro-2H-furo[2,3-f][1,3]benzodioxole-7-carbonyl]amino}-7-methoxy-3,4-dihydro-2H-1-benzopyran-2-yl]-N-[2-hydroxy-1-(2-methoxyphenyl)ethyl]pyridine-3-carboxamide], the EC50 was 20 nM and the “Maximum % activity (%)” value was 116%.
For `COc1ccc2c(c1)O[C@@H](c1ccc(C(=O)N3CCC(F)(F)CC3)cc1)C[C@H]2NC(=O)[C@@]1(C)COc2cc3c(cc21)OC(F)(F)O3` [Example 223, (7R)—N-{(2R,4R)-2-[4-(4,4-difluoropiperidine-1-carbonyl)phenyl]-7-methoxy-3,4-dihydro-2H-1-benzopyran-4-yl}-2,2-difluoro-7-methyl-6,7-dihydro-2H-furo[2,3-f][1,3]benzodioxole-7-carboxamide], the EC50 was 70 nM and the “Maximum % activity (%)” value was 157%.
With `C[C@]1(C(=O)N[C@@H]2C[C@H](C3CCN(C(=O)OCc4ccccc4)CC3)Oc3cc(OC(F)(F)F)ccc32)COc2cc3c(cc21)OC(F)(F)O3` [Example 224, benzyl 4-[(2R,4R)-4-{[(7R)-2,2-difluoro-7-methyl-6,7-dihydro-2H-furo[2,3-f][1,3]benzodioxole-7-carbonyl]amino}-7-(trifluoromethoxy)-3,4-dihydro-2H-1-benzopyran-2-yl]piperidine-1-carboxylate] the EC50 was 310 nM and the “Maximum % activity (%)” value was 199%.
For `C[C@]1(C(=O)N[C@H]2C[C@@H](C3CCN(C(=O)OCc4ccccc4)CC3)Oc3cc(OC(F)(F)F)ccc32)COc2cc3c(cc21)OC(F)(F)O3` [Example 225, benzyl 4-[(2S,4S)-4-{[(7R)-2,2-difluoro-7-methyl-6,7-dihydro-2H-furo[2,3-f][1,3]benzodioxole-7-carbonyl]amino}-7-(trifluoromethoxy)-3,4-dihydro-2H-1-benzopyran-2-yl]piperidine-1-carboxylate], the EC50 was 4020 nM and the “Maximum % activity (%)” value was 54%.
`CC1(C)OC[C@H](CN2CCC([C@@H]3C[C@H](NC(=O)[C@@]4(C)COc5cc6c(cc54)OC(F)(F)O6)c4ccc(OC(F)(F)F)cc4O3)CC2)O1` [Example 226, (7R)—N-[(2S,4S)-2-(1-{[(4S)-2,2-dimethyl-1,3-dioxolan-4-yl]methyl}piperidin-4-yl)-7-(trifluoromethoxy)-3,4-dihydro-2H-1-benzopyran-4-yl]-2,2-difluoro-7-methyl-6,7-dihydro-2H-furo[2,3-f][1,3]benzodioxole-7-carboxamide] was tested, and the EC50 was over 20000 nM and the “Maximum % activity (%)” value was 18%.
In the case of `COc1ccc2c(c1)O[C@@H](c1ccc(C(=O)NCC(N)=O)cn1)C[C@H]2NC(=O)[C@@]1(C)COc2cc3c(cc21)OC(F)(F)O3` [Example 227, N-(2-amino-2-oxoethyl)-6-[(2R,4R)-4-{[(7R)-2,2-difluoro-7-methyl-6,7-dihydro-2H-furo[2,3-f][1,3]benzodioxole-7-carbonyl]amino}-7-methoxy-3,4-dihydro-2H-1-benzopyran-2-yl]pyridine-3-carboxamide], the EC50 is reported as 70 nM and the “Maximum % activity (%)” value is reported as 113%.
`COc1ccc2c(c1)O[C@@H](c1ccc(C(=O)NCCCC(N)=O)cn1)C[C@H]2NC(=O)[C@@]1(C)COc2cc3c(cc21)OC(F)(F)O3` [Example 228, N-(4-amino-4-oxobutyl)-6-[(2R,4R)-4-{[(7R)-2,2-difluoro-7-methyl-6,7-dihydro-2H-furo[2,3-f][1,3]benzodioxole-7-carbonyl]amino}-7-methoxy-3,4-dihydro-2H-1-benzopyran-2-yl]pyridine-3-carboxamide] was tested, and the EC50 was 90 nM and the “Maximum % activity (%)” value was 108%.
`COc1ccc2c(c1)O[C@@H](c1ccc(C(=O)NC(C)CC(N)=O)cn1)C[C@H]2NC(=O)[C@@]1(C)COc2cc3c(cc21)OC(F)(F)O3` (stereo partly drawn) [Example 229, N-(4-amino-4-oxobutan-2-yl)-6-[(2R,4R)-4-{[(7R)-2,2-difluoro-7-methyl-6,7-dihydro-2H-furo[2,3-f][1,3]benzodioxole-7-carbonyl]amino}-7-methoxy-3,4-dihydro-2H-1-benzopyran-2-yl]pyridine-3-carboxamide] was tested, and the EC50 was 110 nM and the “Maximum % activity (%)” value was 118%.
With `COc1ccc2c(c1)O[C@@H](c1ccc(C(=O)NCCS(C)(=O)=O)cn1)C[C@H]2NC(=O)[C@@]1(C)COc2cc3c(cc21)OC(F)(F)O3` [Example 230, 6-[(2R,4R)-4-{[(7R)-2,2-difluoro-7-methyl-6,7-dihydro-2H-furo[2,3-f][1,3]benzodioxole-7-carbonyl]amino}-7-methoxy-3,4-dihydro-2H-1-benzopyran-2-yl]-N-[2-(methanesulfonyl)ethyl]pyridine-3-carboxamide] the EC50 was 60 nM and the “Maximum % activity (%)” value was 115%.
`COc1ccc2c(c1)O[C@@H](c1ccc(C(=O)NCC3CNC(=O)C3)cn1)C[C@H]2NC(=O)[C@@]1(C)COc2cc3c(cc21)OC(F)(F)O3` (stereo partly drawn) [Example 231, 6-[(2R,4R)-4-{[(7R)-2,2-difluoro-7-methyl-6,7-dihydro-2H-furo[2,3-f][1,3]benzodioxole-7-carbonyl]amino}-7-methoxy-3,4-dihydro-2H-1-benzopyran-2-yl]-N-[(5-oxopyrrolidin-3-yl)methyl]pyridine-3-carboxamide] was tested, and the EC50 was 250 nM and the “Maximum % activity (%)” value was 103%.
In the case of `COc1ccc2c(c1)O[C@@H](c1ccc(C(=O)NC3CCNC(=O)C3)cn1)C[C@H]2NC(=O)[C@@]1(C)COc2cc3c(cc21)OC(F)(F)O3` (stereo partly drawn) [Example 232, 6-[(2R,4R)-4-{[(7R)-2,2-difluoro-7-methyl-6,7-dihydro-2H-furo[2,3-f][1,3]benzodioxole-7-carbonyl]amino}-7-methoxy-3,4-dihydro-2H-1-benzopyran-2-yl]-N-(2-oxopiperidin-4-yl)pyridine-3-carboxamide], the EC50 is reported as 260 nM and the “Maximum % activity (%)” value is reported as 117%.
In the case of `COc1ccc2c(c1)O[C@@H](c1ccc(C(=O)N3CCN(S(N)(=O)=O)CC3)cn1)C[C@H]2NC(=O)[C@@]1(C)COc2cc3c(cc21)OC(F)(F)O3` [Example 233, (7R)-2,2-difluoro-N-{(2R,4R)-7-methoxy-2-[5-(4-sulfamoylpiperazine-1-carbonyl)pyridin-2-yl]-3,4-dihydro-2H-1-benzopyran-4-yl}-7-methyl-6,7-dihydro-2H-furo[2,3-f][1,3]benzodioxole-7-carboxamide], the EC50 is reported as 50 nM and the “Maximum % activity (%)” value is reported as 112%.
`COc1ccc2c(c1)O[C@@H](c1ccc(C(=O)N(C)CCO)cn1)C[C@H]2NC(=O)[C@@]1(C)COc2cc3c(cc21)OC(F)(F)O3` [Example 234, 6-[(2R,4R)-4-{[(7R)-2,2-difluoro-7-methyl-6,7-dihydro-2H-furo[2,3-f][1,3]benzodioxole-7-carbonyl]amino}-7-methoxy-3,4-dihydro-2H-1-benzopyran-2-yl]-N-(2-hydroxyethyl)-N-methylpyridine-3-carboxamide] was tested, and the EC50 was 40 nM and the “Maximum % activity (%)” value was 112%.
In the case of `CCN(CCO)C(=O)c1ccc([C@H]2C[C@@H](NC(=O)[C@@]3(C)COc4cc5c(cc43)OC(F)(F)O5)c3ccc(OC)cc3O2)nc1` [Example 235, 6-[(2R,4R)-4-{[(7R)-2,2-difluoro-7-methyl-6,7-dihydro-2H-furo[2,3-f][1,3]benzodioxole-7-carbonyl]amino}-7-methoxy-3,4-dihydro-2H-1-benzopyran-2-yl]-N-ethyl-N-(2-hydroxyethyl)pyridine-3-carboxamide], the EC50 is reported as 50 nM and the “Maximum % activity (%)” value is reported as 114%.
